# From patent publication US6706709B2, “Indolinone derivatives as protein kinase/phosphatase inhibitors” (Sugen, Inc., priority 2000, dated 2004)
# What was measured:
# EGF Receptor = biological target: T1, EGF Receptor (Homo sapiens, UniProt P00533); experiment: bio EGF (EGF Receptor ELISA); assay type: biochemical
# T1 construct: expressed in transfected cells; host or cells: NIH 3T3/C7 (mouse fibroblasts engineered to express human EGF-R)
# Procedure: EGF Receptor kinase activity in cells genetically engineered to express human EGF-R was measured as described below:
# The following materials and reagents were used:
# b. 05-101 (UBI) (a monoclonal antibody recognizing an EGFR extracellular domain).
# c. Anti-phosphotyrosine antibody (anti-Ptyr) (polyclonal).
# d. Detection antibody: Goat anti-rabbit lgG horse radish peroxidase conjugate, TAGO, Inc., Burlingame, Calif.
# Keep solution in dark at 4° C. until used.
# The following protocol was used:
# 1. […] Coated plates are good for up to 10 days when stored at 4° C.
# 2. On day of use, remove coating buffer and replace with blocking buffer (5% Carnation Instant Non-Fat Dry Milk in PBS). Incubate the plate, shaking, at room temperature (about 23° C. to 25° C.) for 30 minutes. Just prior to use, remove blocking buffer and wash plate 4 times with TBST buffer.
# 2. Choose dishes having 80-90% confluence for the experiment. Trypsinize cells and stop reaction by adding 10% CS DMEM medium. Suspend cells in DMEM medium (10% CS DMEM medium) and centrifuge once at 1000 rpm at room temperature for 5 minutes.
# 3. Resuspend cells in seeding medium (DMEM, 0.5% bovine serum), and count the cells using trypan blue. Viability above 90% is acceptable. Seed cells in DMEM medium (0.5% bovine serum) at a density of 10,000 cells per well, 100 μL per well, in a 96 well microtiter plate. Incubate seeded cells in 5% CO2 at 37° C. for about 40 hours.
# 1. Check seeded cells for contamination using an inverted microscope. Dilute drug stock (10 mg/ml in DMSO) 1:10 in DMEM medium, then transfer 5 μL to a test well for a final drug dilution of 1:200 and a final DMSO concentration of 1%. Control wells receive DMSO alone. Incubate in 5% CO2 at 37° C. for one hour.
# 2. Prepare EGF ligand: dilute stock EGF in DMEM so that upon transfer of 10 μL dilute EGF (1:12 dilution), 25 nM final concentration is attained.
# 3. Prepare fresh 10 ml HNTG* sufficient for 100 μL per well wherein HNTG* comprises: HNTG stock (2.0 mL), milli-Q H2O (7.3 mL), EDTA, 100 mM, pH 7.0 (0.5 mL), Na3VO4 0.5 M (0.1 mL) and Na4(P2O7), 0.2 M (0.1 mL).
# 5. After two hours incubation with drug, add prepared EGF ligand to cells, 10 μL per well, to yield a final concentration of 25 nM. Control wells receive DMEM alone. Incubate, shaking, at room temperature, for 5 minutes.
# 6. Remove drug, EGF, and DMEM. Wash cells twice with PBS. Transfer HNTG* to cells, 100 μL per well. Place on ice for 5 minutes. Meanwhile, remove blocking buffer from other ELISA plate and wash with TBST as described above.
# 7. With a pipette tip securely fitted to a micropipettor, scrape cells from plate and homogenize cell material by repeatedly aspirating and dispensing the HNTG* lysis buffer. Transfer lysate to a coated, blocked, and washed ELISA plate. Incubate shaking at room temperature for one hour.
# 8. Remove lysate and wash 4 times with TBST. Transfer freshly diluted anti-Ptyr antibody to ELISA plate at 100 μL per well. Incubate shaking at room temperature for 30 minutes in the presence of the anti-Ptyr antiserum (1:3000 dilution in TBST).
# 9. Remove the anti-Ptyr antibody and wash 4 times with TBST. Transfer the freshly diluted TAGO 30 anti-rabbit IgG antibody to the ELISA plate at 100 μL per well. Incubate shaking at room temperature for 30 minutes (anti-rabbit IgG antibody: 1:3000 dilution in TBST).
# 10. Remove detection antibody and wash 4 times with TBST. Transfer freshly prepared ABTS/H2O2 solution to ELISA plate, 100 μL per well. Incubate at room temperature for 20 minutes. ABTS/H2O2 solution: 1.2 μL 30% H2O2in 10 mL ABTS stock.
# 11. Stop reaction by adding 50 μL 5N H2SO4 (optional), and determine O.D. at 410 nm.
# 12. The maximal phosphotyrosine signal is determined by subtracting the value of the negative controls from the positive controls. The percent inhibition of phosphotyrosine content for extract-containing wells is then calculated, after subtraction of the negative controls.
# GST-Flk1 = GST-Flk1 (UniProt P35918); experiment: GST-FLK-1 bioassay (bio flkGST); assay type: biochemical
# Procedure: This assay analyzes the tyrosine kinase activity of GST-Flk1 on poly glu tyr peptides.
# 2. poly glu tyr 4:1, lyophilizate (Sigma Catalog # P0275). Prepare 1 mg/mL poly glu tyr in sterile PBS and store in 1 ml aliquots at −20° C.
# 3. Preparation of poly glu tyr (pEY) coated assay plates: Coat 2 μg/well of poly glu tyr (pEY) in 100 μL PBS at room temperature for 2 hours or at +4° C. overnight. Cover plates well to prevent evaporation.
# 4. PBS Buffer: To make 1 liter of a 1× working solution, mix […], 1.15 g NA2HPO4, 0.2 g KCl and 8 g NaCl in approx. 900 mL dH2O. When all reagents have dissolved, adjust the pH to 7.2 with HCl. Bring total volume to 1L with dH2O.
# 5. PBS-Tw Buffer: To 1L of PBS Buffer, add […] Tween-20. Stir until dissolved.
# 6. TBB-Blocking Buffer: To make one liter of a 1× working solution, mix 1.21 g TRIS, 8.77 g NaCl, 1 mL TWEEN-20 in approximately 900 mL dH2O. Adjust pH to 7.2 with HCl. Add 10 g BSA, stir to dissolve. Bring total volume to 1 L with dH2O. Filter to remove particulate matter.
# 7. 1% BSA in PBS: To make a 1× working solution, add 10 g BSA to approx. 990 mL PBS buffer, stir to dissolve. Adjust total volume to 1 L with PBS buffer, filter to remove particulate matter.
# 9. GST-Flk1cd purified from sf9 recombinant baculovirus transformation.
# 13. Kinase Dilution Buffer (KDB): Mix 10 mL Hepes (pH 7.5), 1 mL of 5 M NaCl, 40 μL of 100 mM NaVO4 and 0.4 mL of 5% BSA in dH2O with 88.56 mL of dH2O.
# 14. NUNC-96-well V bottom polypropylene plates Applied Scientific Catalog # AS-72092
# 15. EDTA: Mix 14.12 g ethylenediaminetetraacetic acid (EDTA) to approx. 70 mL dH2O. Add 10N NaOH until EDTA dissolves. Adjust pH to 8.0. Adjust total volume to 100 mL with dH2O.
# 16. 1° Antibody Dilution Buffer: Mix 10 mL of 5% BSA in PBS buffer with 89.5 mL TBSTw.
# 17. Anti-phosphotyrosine monoclonal conjugated to horseradish peroxidase (PY99 HRP, Santa Cruz Biotech).
# 18. 2,2′-Azino-bis(3-ethylbenzthiazoline-6-sulfonic acid (ABTS, Moss, Cat. No. ABST).
# 1. Coat Corning 96 well ELISA plates with 2 μg of polyEY peptide in sterile PBS as described in step 3 of Materials and Reagents.
# 2. Remove unbound liquid from wells by inverting plate. Wash once with TBSTw. Pat the plate on a paper towel to remove excess liquid.
# 3. Add 100 μL of 1% BSA in PBS to each well. Incubate, with shaking, for 1 hr. at room temperature.
# 5. Soak wells with 50 mM Hepes pH7.5 (150 μL/well).
# 6. Dilute test compound with dH2O/4% DMSO to 4 times the desired final assay concentration in 96-well polypropylene plates.
# 7. Add 25 μL diluted test compound to ELISA plate.
# 8. Add 25 μL of 40 mM MnCl2 with 4×ATP (2 μM) to all wells.
# 9. Add 25 μL 0.5 M EDTA to negative control wells.
# 10. Dilute GST-Flk1 0.005 μg (5 ng)/well in KDB. For 50 ml KDB add 100 μL of 0.050 mg/mL GST-Flk1 enzyme.
# 11. Add 50 μL of diluted enzyme to each well.
# 12. Incubate, with shaking, for 15 minutes at room temperature.
# 13. Stop reaction by adding 50 μL of 250 mM EDTA (pH 8.0).
# 14. Wash 3× with TBSTw and pat plate on paper towel to remove excess liquid.
# 15. Add 100 μL per well anti-phosphotyrosine HRP conjugate, 1:5,000 dilution in antibody dilution buffer. Incubate, with shaking for 90 min. at room temperature.
# 16. Wash as described above in step 14.
# 17. Add 100 μL of room temperature ABTS solution to each well.
# 18. Incubate, with shaking, for 10 to 15 minutes. Remove any bubbles.
# 19. Stop reaction by adding 20 μL of 10% SDS.
# 20. Read assay on Dynatech MR7000 ELISA reader: test filter at 410 nM; reference filter at 630 nM.
# T1 sequence (P00533 25-1210): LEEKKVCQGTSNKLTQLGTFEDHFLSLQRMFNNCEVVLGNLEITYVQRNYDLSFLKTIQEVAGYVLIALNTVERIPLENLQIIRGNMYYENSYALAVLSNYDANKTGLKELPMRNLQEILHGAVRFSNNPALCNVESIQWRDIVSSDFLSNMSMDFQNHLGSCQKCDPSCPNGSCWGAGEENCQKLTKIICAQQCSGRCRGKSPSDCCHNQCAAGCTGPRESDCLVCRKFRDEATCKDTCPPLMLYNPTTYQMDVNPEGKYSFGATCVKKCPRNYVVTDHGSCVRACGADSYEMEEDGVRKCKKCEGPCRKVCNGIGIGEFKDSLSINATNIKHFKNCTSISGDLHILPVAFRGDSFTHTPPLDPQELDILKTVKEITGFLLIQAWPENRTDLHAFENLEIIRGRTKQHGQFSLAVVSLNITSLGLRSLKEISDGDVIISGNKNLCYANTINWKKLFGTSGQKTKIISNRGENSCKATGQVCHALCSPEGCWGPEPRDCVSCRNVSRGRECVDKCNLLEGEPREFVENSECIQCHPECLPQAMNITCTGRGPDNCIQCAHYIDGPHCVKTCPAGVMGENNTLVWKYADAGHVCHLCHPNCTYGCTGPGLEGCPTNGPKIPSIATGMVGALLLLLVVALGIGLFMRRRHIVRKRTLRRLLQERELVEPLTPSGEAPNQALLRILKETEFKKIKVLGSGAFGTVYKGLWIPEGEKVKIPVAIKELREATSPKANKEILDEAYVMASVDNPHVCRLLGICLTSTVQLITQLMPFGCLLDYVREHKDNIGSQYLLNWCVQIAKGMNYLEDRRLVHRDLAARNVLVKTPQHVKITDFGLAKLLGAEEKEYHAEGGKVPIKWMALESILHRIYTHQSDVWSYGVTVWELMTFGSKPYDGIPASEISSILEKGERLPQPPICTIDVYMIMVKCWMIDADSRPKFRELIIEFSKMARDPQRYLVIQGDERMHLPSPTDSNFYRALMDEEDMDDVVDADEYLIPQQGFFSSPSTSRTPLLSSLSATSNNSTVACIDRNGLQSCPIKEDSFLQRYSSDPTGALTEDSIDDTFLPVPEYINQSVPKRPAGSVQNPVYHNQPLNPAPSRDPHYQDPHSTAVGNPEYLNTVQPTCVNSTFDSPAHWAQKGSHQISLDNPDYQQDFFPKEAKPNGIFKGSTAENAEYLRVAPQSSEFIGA
SMILES,IC50 (EGF Receptor) [µM],IC50 (GST-Flk1) [µM]
"COc1ccc(-c2ccc3c(c2)NC(=O)C3=Cc2cc3cc(OCCN4CCOCC4)ccc3[nH]2)cc1 [IN-035, 6-(4-methoxy-phenyl)-3-[5-(2-morpholin-4-yl-ethoxy)-1H-indol-2-ylmethylene]-1,3-dihydro-indol-2-one]",> 20,> 20
"CNS(=O)(=O)c1ccc2c(c1)C(=Cc1cc3cc(OCCN4CCCC4)ccc3[nH]1)C(=O)N2 [IN-041, 2-oxo-3-[5-(2-pyrrolidin-1-yl-ethoxy)-1H-indol-2-ylmethylene]-2,3-dihydro-1H-indole-5-sulfonic acid methylamide]",8.43,0.21
"NS(=O)(=O)c1ccc2c(c1)C(=Cc1cc3cc(OCCN4CCOCC4)ccc3[nH]1)C(=O)N2 [IN-040, 3-[5-(2-morpholin-4-yl-ethoxy)-1H-indol-2-ylmethylene]-2-oxo-2,3-dihydro-1H-indole-5-sulfonic acid amide]",> 100,0.21
"CN(C)CCOc1ccc2[nH]c(C=C3C(=O)Nc4ccc(-c5ccccc5)cc43)cc2c1 [IN-005, 3-[5-(2-dimethylamino-ethoxy)-1H-indol-2-ylmethylene]-5-phenyl-1,3-dihydro-indol-2-one]",16.3,0.31
"O=C1Nc2cc(-c3cccnc3)ccc2C1=Cc1cc2cc(OCCN3CCOCC3)ccc2[nH]1 [IN-034, 3-[5-(2-morpholin-4-yl-ethoxy)-1H-indol-2-ylmethylene]-6-pyridin-3-yl-1,3-dihydro-indol-2-one]",> 20,14
"CCN(CC)CCOc1ccc2[nH]c(C=C3C(=O)Nc4ccc(Br)cc43)cc2c1 [IN-017, 5-bromo-3-[5-(2-diethylamino-ethoxy)-1H-indol-2-ylmethylene]-1,3-dihydro-indol-2-one]",4.67,0.01
"O=C1Nc2cc(-c3ccccc3)ccc2C1=Cc1cc2cc(OCCN3CCCC3)ccc2[nH]1 [IN-015, 6-phenyl-3-[5-(2-pyrrolidin-1-yl-ethoxy)-1H-indol-2-ylmethylene]-1,3-dihydro-indol-2-one]",70.6,0.99

# Continued, values first:
IC50 (EGF Receptor) [µM],IC50 (GST-Flk1) [µM],SMILES
> 100,12.8,"CNS(=O)(=O)c1ccc2c(c1)C(=Cc1c(C)[nH]c3ccccc13)C(=O)N2 [IN-069, 3-(2-methyl-1H-indol-3-ylmethylene)-2-oxo-2,3-dihydro-1H-indole-5-sulfonic acid methylamide]"
> 20,15.4,"O=C1Nc2ccc(S(=O)(=O)N3CCCc4ccccc43)cc2C1=Cc1cc2cc(OCCN3CCOCC3)ccc2[nH]1 [IN-062, 5-(3,4-dihydro-2H-quinoline-1-sulfonyl)-3-[5-(2-morpholin-4-yl-ethoxy)-1H-indol-2-ylmethylene]-1,3-dihydro-indol-2-one]"
15.5,9.96,"O=C1Nc2ccc(S(=O)(=O)Nc3ccccc3)cc2C1=Cc1cc2cc(OCCN3CCOCC3)ccc2[nH]1 [IN-056, 3-[5-(2-morpholin-4-yl-ethoxy)-1H-indol-2-ylmethylene]-2-oxo-2,3-dihydro-1H-indole-5-sulfonic acid phenylamide]"
2.13,1.16,"CN(c1cccc(Cl)c1)S(=O)(=O)c1ccc2c(c1)C(=Cc1cc3cc(OCCN4CCCC4)ccc3[nH]1)C(=O)N2 [IN-048, 2-oxo-3-[5-(2-pyrrolidin-1-yl-ethoxy)-1H-indol-2-ylmethylene]-2,3-dihydro-1H-indole-5-sulfonic acid (3-chloro-phenyl)-methyl-amide]"
> 100,1.58,"CN(C)S(=O)(=O)c1ccc2c(c1)C(=Cc1ccc3[nH]ccc3c1)C(=O)N2 [IN-074, 3-(1H-indol-5-ylmethylene)-2-oxo-2,3-dihydro-1H-indole-5-sulfonic acid dimethylamide]"
> 20,4.28,"CN(C)S(=O)(=O)c1ccc2c(c1)C(=Cc1cc3cc(OCCN4CCOCC4)ccc3[nH]1)C(=O)N2 [IN-054, 3-[5-(2-morpholin-4-yl-ethoxy)-1H-indol-2-ylmethylene]-2-oxo-2,3-dihydro-1H-indole-5-sulfonic acid dimethylamide]"
